Experimental data taken from patent US7582645B2, “Pyrimidine derivatives for treatment of hyperproliferative disorders” (Bayer Pharmaceuticals Corporation, priority 2003, dated 2009).
pIC50: −log10 of the molar value. Counter-ions that a name gives are not always drawn.

System: HCT116 cells
Assay: HCT116 cytotoxic activity assay (Alamar Blue, 72 h)
Format: cell-based
Conditions: Homo sapiens, HCT-116, 72 h compound exposure
Method: Representative compounds of this invention were tested for cytotoxicity using the above-described assay procedure with the following results: […]

[1] = greater than 500 nM but less than or equal to 2 μM

| Structure (SMILES) | pIC50 (less than or equal to 500 nM) | other results |
| --- | --- | --- |
| Nc1nc(Nc2ccc(Oc3ccnc(C(F)(F)F)c3)cc2)cc(-c2ccccc2F)n1 [Example 193, 6-(2-fluorophenyl)-N4*-(4-{[2-(trifluoromethyl)pyridin-4-yl]oxy}phenyl)pyrimidine-2,4-diamine] | ≥ 6.30 | – |
| Nc1nc(Nc2ccc(Oc3ccnc(C(F)(F)F)c3)cc2)cc(-c2ccccc2N)n1 [Example 194, 6-(2-aminophenyl)-N4*-(4-{[2-(trifluoromethyl)pyridin-4-yl]oxy}phenyl)pyrimidine-2,4-diamine] | – | pIC50 [1]: 5.70 to 6.30 |
| Nc1nc(Nc2ccc(Oc3ccnc(C(F)(F)F)c3)cc2)cc(-c2ccoc2)n1 [Example 195, 6-(3-furyl)-N4*-(4-{[2-(trifluoromethyl)pyridin-4-yl]oxy}phenyl)pyrimidine-2,4-diamine] | ≥ 6.30 | – |
| Nc1nc(Nc2ccc(Oc3ccnc(C(F)(F)F)c3)cc2)cc(-c2ccc(F)cc2)n1 [Example 196, 6-(4-fluorophenyl)-N4*-(4-{[2-(trifluoromethyl)pyridin-4-yl]oxy}phenyl)pyrimidine-2,4-diamine] | ≥ 6.30 | – |
| Nc1nc(Nc2ccc(Oc3ccnc(C(F)(F)F)c3)cc2)cc(-c2cccc(C(F)(F)F)c2)n1 [Example 197, 6-[3-(trifluoromethyl)phenyl]-N4*-(4-{[2-(trifluoromethyl)pyridin-4-yl]oxy}phenyl)pyrimidine-2,4-diamine] | – | pIC50 [1]: 5.70 to 6.30 |
| N#Cc1cccc(-c2cc(Nc3ccc(Oc4ccnc(C(F)(F)F)c4)cc3)nc(N)n2)c1 [Example 198, 3-{2-amino-6-[(4-{[2-(trifluoromethyl)pyridin-4-yl]oxy}phenyl)amino]pyrimidin-4-yl}benzonitrile] | – | pIC50 [1]: 5.70 to 6.30 |
| CN(C)c1ccc(-c2cc(Nc3ccc(Oc4ccnc(C(F)(F)F)c4)cc3)nc(N)n2)cc1 [Example 199, 6-[4-(dimethylamino)phenyl]-N4*-(4-{[2-(trifluoromethyl)pyridin-4-yl]oxy}phenyl)pyrimidine-2,4-diamine] | ≥ 6.30 | – |
| CCc1cccc(-c2cc(Nc3ccc(Oc4ccnc(C(F)(F)F)c4)cc3)nc(N)n2)c1 [Example 200, 6-(3-ethylphenyl)-N4*-(4-{[2-(trifluoromethyl)pyridin-4-yl]oxy}phenyl)pyrimidine-2,4-diamine] | ≥ 6.30 | – |
| COc1ccc(C(C)C)cc1-c1cc(Nc2ccc(Oc3ccnc(C(F)(F)F)c3)cc2)nc(N)n1 [Example 201, 6-(5-isopropyl-2-methoxyphenyl)-N4*-(4-{[2-(trifluoromethyl)pyridin-4-yl]oxy}phenyl)pyrimidine-2,4-diamine] | – | pIC50 [1]: 5.70 to 6.30 |
| Cc1ccccc1-c1cc(Nc2ccc(Oc3ccnc(C(F)(F)F)c3)cc2)nc(N)n1 [Example 202, 6-(2-methylphenyl)-N4*-(4-{[2-(trifluoromethyl)pyridin-4-yl]oxy}phenyl)pyrimidine-2,4-diamine] | ≥ 6.30 | – |
| COc1ccncc1-c1cc(Nc2ccc(Oc3ccnc(C(F)(F)F)c3)cc2)nc(N)n1 [Example 203, 6-(4-methoxypyridin-3-yl)-N4*-(4-{[2-(trifluoromethyl)pyridin-4-yl]oxy}phenyl)pyrimidine-2,4-diamine] | – | pIC50 [1]: 5.70 to 6.30 |
| Nc1nc(Nc2ccc(Oc3ccnc(C(F)(F)F)c3)cc2)cc(-c2ccc(F)cc2F)n1 [Example 204, 6-(2,4-difluorophenyl)-N4*-(4-{[2-(trifluoromethyl)pyridin-4-yl]oxy}phenyl)pyrimidine-2,4-diamine] | ≥ 6.30 | – |
| Nc1nc(Nc2ccc(Oc3ccnc(C(F)(F)F)c3)cc2)cc(-c2cccc(CO)c2)n1 [Example 205, (3-{2-amino-6-[(4-{[2-(trifluoromethyl)pyridin-4-yl]oxy}phenyl)amino]pyrimidin-4-yl}phenyl) methanol] | ≥ 6.30 | – |
| COc1cccc(-c2cc(Nc3ccc(Oc4ccnc(C(F)(F)F)c4)cc3)nc(N)n2)c1 [Example 206, 6-(3-methoxyphenyl)-N4*-(4-{[2-(trifluoromethyl)pyridin-4-yl]oxy}phenyl)pyrimidine-2,4-diamine] | ≥ 6.30 | – |
| CCSc1ccc(-c2cc(Nc3ccc(Oc4ccnc(C(F)(F)F)c4)cc3)nc(N)n2)cc1 [Example 207, 6-[4-(ethylthio)phenyl]-N4*-(4-{[2-(trifluoromethyl)pyridin-4-yl]oxy}phenyl)pyrimidine-2,4-diamine] | – | pIC50 [1]: 5.70 to 6.30 |
| Cc1ccc(-c2cc(Nc3ccc(Oc4ccnc(C(F)(F)F)c4)cc3)nc(N)n2)cc1N [Example 208, 6-(3-amino-4-methylphenyl)-N4*-(4-{[2-(trifluoromethyl)pyridin-4-yl]oxy}phenyl)pyrimidine-2,4-diamine] | ≥ 6.30 | – |
| CC(C)c1ccc(-c2cc(Nc3ccc(Oc4ccnc(C(F)(F)F)c4)cc3)nc(N)n2)cc1 [Example 209, 6-(4-isopropylphenyl)-N4*-(4-{[2-(trifluoromethyl)pyridin-4-yl]oxy}phenyl)pyrimidine-2,4-diamine] | ≥ 6.30 | – |
| N#CCc1ccc(-c2cc(Nc3ccc(Oc4ccnc(C(F)(F)F)c4)cc3)nc(N)n2)cc1 [Example 210, (4-{2-amino-6-[(4-{[2-(trifluoromethyl)pyridin-4-yl]oxy}phenyl)amino]pyrimidin-4-yl}phenyl) acetonitrile] | ≥ 6.30 | – |

| Structure (SMILES) | pIC50 (less than or equal to 500 nM) | other results |
| --- | --- | --- |
| Cc1ccc(-c2cc(Nc3ccc(Oc4ccnc(C(F)(F)F)c4)cc3)nc(N)n2)cc1 [Example 211, 6-(4-methylphenyl)-N4*-(4-{[2-(trifluoromethyl)pyridin-4-yl]oxy}phenyl)pyrimidine-2,4-diamine] | ≥ 6.30 | – |
| Cc1cccc(-c2cc(Nc3ccc(Oc4ccnc(C(F)(F)F)c4)cc3)nc(N)n2)c1 [Example 212, 6-(3-methylphenyl)-N4*-(4-{[2-(trifluoromethyl)pyridin-4-yl]oxy}phenyl)pyrimidine-2,4-diamine] | ≥ 6.30 | – |
| Nc1nc(Nc2ccc(Oc3ccnc(C(F)(F)F)c3)cc2)cc(-c2cccnc2)n1 [Example 213, 6-pyridin-3-yl-N4*-(4-{[2-(trifluoromethyl)pyridin-4-yl]oxy}phenyl)pyrimidine-2,4-diamine] | ≥ 6.30 | – |
| Nc1nc(Nc2ccc(Oc3ccnc(C(F)(F)F)c3)cc2)cc(-c2ccsc2)n1 [Example 214, 6-(3-thienyl)-N4*-(4-{[2-(trifluoromethyl)pyridin-4-yl]oxy}phenyl)pyrimidine-2,4-diamine] | ≥ 6.30 | – |
| COc1ccc(OC)c(-c2cc(Nc3ccc(Oc4ccnc(C(F)(F)F)c4)cc3)nc(N)n2)c1 [Example 215, 6-(2,5-dimethoxyphenyl)-N4*-(4-{[2-(trifluoromethyl)pyridin-4-yl]oxy}phenyl)pyrimidine-2,4-diamine] | ≥ 6.30 | – |
| Nc1nc(Nc2ccc(Oc3ccnc(C(F)(F)F)c3)cc2)cc(-c2cccc(OC(F)(F)F)c2)n1 [Example 216, 6-[3-(trifluoromethoxy)phenyl]-N4*- (4-{[2-(trifluoromethyl)pyridin-4-yl]oxy}phenyl)pyrimidine-2,4-diamine] | – | pIC50 (greater than 2 μM): < 5.70 |
| Nc1nc(Nc2ccc(Oc3ccnc(C(F)(F)F)c3)cc2)cc(-c2ccc(OC(F)(F)F)cc2)n1 [Example 217, 6-[4-(trifluoromethoxy)phenyl]-N4*- (4-{[2-(trifluoromethyl)pyridin-4-yl]oxy}phenyl)pyrimidine-2,4-diamine] | – | pIC50 (greater than 2 μM): < 5.70 |
| Nc1nc(Nc2ccc(Oc3ccnc(C(F)(F)F)c3)cc2)cc(-c2cc(F)cc(F)c2)n1 [Example 218, 6-(3,5-difluorophenyl)-N4*-(4-{[2-(trifluoromethyl)pyridin-4-yl]oxy}phenyl)pyrimidine-2,4-diamine] | ≥ 6.30 | – |
| N#Cc1cc(Oc2ccc(Nc3cc(-c4ccc[nH]4)nc(N)n3)cc2)ccn1 [Example 219, 4-(4-{[2-amino-6-(1H-pyrrol-2-yl)pyrimidin-4-yl]amino}phenoxy) pyridine-2-carbonitrile hydrochloride] | ≥ 6.30 | – |
| CCCCc1ccc(-c2cc(Nc3ccc(Oc4ccnc(C#N)c4)cc3)nc(N)n2)cc1 [Example 220, 4-(4-{[2-amino-6-(4-butylphenyl)pyrimidin-4-yl]amino}phenoxy) pyridine-2-carbonitrile] | – | pIC50 [1]: 5.70 to 6.30 |
| N#Cc1cc(Oc2ccc(Nc3cc(-c4ccc(-c5ccccc5)c(F)c4)nc(N)n3)cc2)ccn1 [Example 221, 4-(4-{[2-amino-6-(2-fluorobiphenyl-4-yl)pyrimidin-4-yl]amino}phenoxy) pyridine-2-carbonitrile] | – | pIC50 (greater than 2 μM): < 5.70 |
| NC(=O)c1cc(Oc2ccc(Nc3cc(-c4cccc(OCc5ccccc5)c4)nc(N)n3)cc2)ccn1 [Example 222, 4-[4-({2-amino-6-[3-(benzyloxy)phenyl]pyrimidin-4-yl}amino)phenoxy]pyridine-2-carboxamide] | – | pIC50 [1]: 5.70 to 6.30 |
| COc1ccc(-c2cc(Nc3ccc(Oc4ccnc(C#N)c4)cc3)nc(N)n2)cn1 [Example 223, 4-(4-{[2-amino-6-(6-methoxypyridin-3-yl)pyrimidin-4-yl]amino}phenoxy) pyridine-2-carbonitrile] | ≥ 6.30 | – |
| COc1ccc(-c2cc(Nc3ccc(Oc4ccnc(C#N)c4)cc3)nc(N)n2)cc1OC [Example 224, 4-(4-{[2-amino-6-(3,4-dimethoxyphenyl)pyrimidin-4-yl]amino}phenoxy)pyridine-2-carbonitrile] | – | pIC50 (greater than 2 μM): < 5.70 |
| COc1ccc(-c2cc(Nc3ccc(Oc4ccnc(C#N)c4)cc3)nc(N)n2)cc1 [Example 225, 4-(4-{[2-amino-6-(4-methoxyphenyl)pyrimidin-4-yl]amino}phenoxy) pyridine-2-carbonitrile 4-(4-{[6-amino-2-(4-methoxyphenyl)pyrimidin-4-yl]amino}phenoxy) pyridine-2-carbonitrile] | – | pIC50 (greater than 2 μM): < 5.70 |
| N#Cc1cc(Oc2ccc(Nc3cc(-c4cccc(O)c4)nc(N)n3)cc2)ccn1 [Example 226] | – | pIC50 [1]: 5.70 to 6.30 |
| N#Cc1cc(Oc2ccc(Nc3cc(-c4ccc(O)cc4)nc(N)n3)cc2)ccn1 [Example 227, 4-(4-{[2-amino-6-(4-hydroxyphenyl)pyrimidin-4-yl]amino}phenoxy) pyridine-2-carbonitrile 4-(4-{[6-amino-2-(4-hydroxyphenyl)pyrimidin-4-yl]amino}phenoxy) pyridine-2-carbonitrile] | ≥ 6.30 | – |
